Measurements: paper PMC10687071 (The Journal of Biological Chemistry, 2023)

Target: T1, PAS domain of EAG1 channels (Mus musculus, UniProt Q60603)
T1 construct: DNA encoding PAS (residues 7–136) of mouse EAG1 channels (GI # Q60603); 6-His (N); TEV protease cleavage site (N); made in house; host or cells: BL21 (DE3) Escherichia coli
T1 sequence (Q60603 7-136): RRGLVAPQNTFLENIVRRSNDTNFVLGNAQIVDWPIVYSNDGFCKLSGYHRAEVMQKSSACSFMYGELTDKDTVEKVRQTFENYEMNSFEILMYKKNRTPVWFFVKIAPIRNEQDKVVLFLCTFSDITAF
Assay: Surface plasmon resonance, PAS domain immobilized on CM5 chip
Format: binding
Details: imipramine 1, 10 and 30 μM; concentration-dependent increase in SPR response; affinity not determined
Experimental: DNA encoding PAS (residues 7–136) of mouse EAG1 channels (GI # Q60603) was synthesized by BioBasic and subcloned into pETM11 bacterial expression vector containing an N-terminal 6-His affinity tag followed by a tobacco etch virus (TEV) protease cleavage site. The DNA sequences were verified by sequencing (Genewiz). The PAS domains were expressed in BL21 (DE3) Escherichia coli cells as previously described ([25], [63]). The cells were grown at 37 °C to an optical density at 600 nm of 0.6 to 0.8, induced with IPTG at 18 °C overnight and harvested by centrifugation. The cells were resuspended in 150 mM KCl, 1 mM TCEP, 1 mM ABSF, 2.5 mg/ml DNaseI and 30 mM HEPES, pH 7.5. Cells were lysed with an Emulsiflex-C5 (Avestin). Insoluble protein was separated by centrifugation in 45 Ti rotor at 30,000 rpm for 1 h at 4 °C. The PAS domains were purified by Ni^2+ affinity chromatography using HisTrap HP column (Cytiva) and eluted on a linear gradient to 500 mM imidazole. The protein was further purified on a Superdex 200 Increase 10/300 column (Cytiva) equilibrated with 150 mM KCl, 1 mM TCEP, 10% glycerol, and 30 mM HEPES, pH 7.5. The protein concentration was determined with Bradford Protein Assay Kit (Pierce).
All SPR binding experiments were performed on a CM5 chip (Cytiva) at 25 °C using a Biacore T200 Instrument (GE Healthcare). […]

SPR binding to the immobilized PAS domain: directly binds
SMILES: CN(C)CCCN1c2ccccc2CCc2ccccc21 [imipramine]
